Source: ChEMBL document CHEMBL1955750, “Benzodiazepines and benzotriazepines as protein interaction inhibitors targeting bromodomains of the BET family” (Bioorg Med Chem, 2012)
The source made the active and inactive calls. No cut-off for these calls is given here.

What was measured:
[1] = biological target: Bromodomain-containing protein 3 (Homo sapiens) (UniProt Q15059); assay: Binding affinity to BRD3-BD1 assessed as change in melting temperature at 10 uM by protein stability shift assay
[2] = biological target: Bromodomain adjacent to zinc finger domain protein 2B (Homo sapiens) (UniProt Q9UIF8); assay: Binding affinity to BAZ2B assessed as change in melting temperature at 10 uM by protein stability shift assay
[3] = biological target: Protein polybromo-1 (Homo sapiens) (UniProt Q86U86); assay: Binding affinity to PB1 assessed as change in melting temperature at 10 uM by protein stability shift assay
[4] = biological target: CREB-binding protein (Homo sapiens) (UniProt Q92793); assay: Binding affinity to CREBBP assessed as change in melting temperature at 10 uM by protein stability shift assay
[5] = Binding affinity to LOC93349 assessed as change in melting temperature at 10 uM by protein stability shift assay
[6] = biological target: T1, Bromodomain-containing protein 4 (Homo sapiens, UniProt O60885); assay: Binding affinity to BRD4-BD2 assessed as change in melting temperature at 10 uM by protein stability shift assay
[7] = biological target: Bromodomain-containing protein 2 (Homo sapiens) (UniProt P25440); assay: Binding affinity to BRD2-BD1 assessed as change in melting temperature at 10 uM by protein stability shift assay
[8] = biological target: Bromodomain-containing protein 3 (Homo sapiens) (UniProt Q15059); assay: Binding affinity to BRD3-BD2 assessed as change in melting temperature at 10 uM by protein stability shift assay
[9] = biological target: Bromodomain testis-specific protein (Homo sapiens) (UniProt Q58F21); assay: Binding affinity to BRDT-BD1 assessed as change in melting temperature at 10 uM by protein stability shift assay
[10] = biological target: Histone acetyltransferase KAT2B (Homo sapiens) (UniProt Q92831); assay: Binding affinity to PCAF assessed as change in melting temperature at 10 uM by protein stability shift assay
[11] = biological target: T1, Bromodomain-containing protein 4; assay: Binding affinity to BRD4-BD1 assessed as change in melting temperature at 10 uM by protein stability shift assay
[12] = biological target: Bromodomain-containing protein 2 (Homo sapiens) (UniProt P25440); assay: Binding affinity to BRD2-BD2 assessed as change in melting temperature at 10 uM by protein stability shift assay
[13] = biological target: T1, Bromodomain-containing protein 4
Description: Binding affinity to BRD4-BD1 assessed as change in melting temperature by isothermal titration calorimetry

[14] = biological target: Bromodomain adjacent to zinc finger domain protein 2B (Homo sapiens) (UniProt Q9UIF8); assay: Binding affinity to BAZ2B assessed as change in melting temperature at 100 uM by protein stability shift assay
[15] = Binding affinity to LOC93349 assessed as change in melting temperature at 100 uM by protein stability shift assay
[16] = biological target: Bromodomain testis-specific protein (Homo sapiens) (UniProt Q58F21); assay: Binding affinity to BRDT-BD1 assessed as change in melting temperature at 100 uM by protein stability shift assay
[17] = biological target: Bromodomain-containing protein 2 (Homo sapiens) (UniProt P25440); assay: Binding affinity to BRD2-BD2 assessed as change in melting temperature at 100 uM by protein stability shift assay
[18] = biological target: Protein polybromo-1 (Homo sapiens) (UniProt Q86U86); assay: Binding affinity to PB1 assessed as change in melting temperature at 100 uM by protein stability shift assay
[19] = biological target: Bromodomain-containing protein 3 (Homo sapiens) (UniProt Q15059); assay: Binding affinity to BRD3-BD2 assessed as change in melting temperature at 100 uM by protein stability shift assay
[20] = biological target: Histone acetyltransferase KAT2B (Homo sapiens) (UniProt Q92831); assay: Binding affinity to PCAF assessed as change in melting temperature at 100 uM by protein stability shift assay
[21] = biological target: Bromodomain-containing protein 2 (Homo sapiens) (UniProt P25440); assay: Binding affinity to BRD2-BD1 assessed as change in melting temperature at 100 uM by protein stability shift assay
[22] = biological target: Bromodomain-containing protein 3 (Homo sapiens) (UniProt Q15059); assay: Binding affinity to BRD3-BD1 assessed as change in melting temperature at 100 uM by protein stability shift assay
[23] = biological target: T1, Bromodomain-containing protein 4; assay: Binding affinity to BRD4-BD1 assessed as change in melting temperature at 100 uM by protein stability shift assay
[24] = biological target: T1, Bromodomain-containing protein 4; assay: Binding affinity to BRD4-BD2 assessed as change in melting temperature at 100 uM by protein stability shift assay
[25] = biological target: CREB-binding protein (Homo sapiens) (UniProt Q92793); assay: Binding affinity to CREBBP assessed as change in melting temperature at 100 uM by protein stability shift assay

Histone acetyltransferase KAT2B (Homo sapiens), sequence (Q92831 whole entry, looked up): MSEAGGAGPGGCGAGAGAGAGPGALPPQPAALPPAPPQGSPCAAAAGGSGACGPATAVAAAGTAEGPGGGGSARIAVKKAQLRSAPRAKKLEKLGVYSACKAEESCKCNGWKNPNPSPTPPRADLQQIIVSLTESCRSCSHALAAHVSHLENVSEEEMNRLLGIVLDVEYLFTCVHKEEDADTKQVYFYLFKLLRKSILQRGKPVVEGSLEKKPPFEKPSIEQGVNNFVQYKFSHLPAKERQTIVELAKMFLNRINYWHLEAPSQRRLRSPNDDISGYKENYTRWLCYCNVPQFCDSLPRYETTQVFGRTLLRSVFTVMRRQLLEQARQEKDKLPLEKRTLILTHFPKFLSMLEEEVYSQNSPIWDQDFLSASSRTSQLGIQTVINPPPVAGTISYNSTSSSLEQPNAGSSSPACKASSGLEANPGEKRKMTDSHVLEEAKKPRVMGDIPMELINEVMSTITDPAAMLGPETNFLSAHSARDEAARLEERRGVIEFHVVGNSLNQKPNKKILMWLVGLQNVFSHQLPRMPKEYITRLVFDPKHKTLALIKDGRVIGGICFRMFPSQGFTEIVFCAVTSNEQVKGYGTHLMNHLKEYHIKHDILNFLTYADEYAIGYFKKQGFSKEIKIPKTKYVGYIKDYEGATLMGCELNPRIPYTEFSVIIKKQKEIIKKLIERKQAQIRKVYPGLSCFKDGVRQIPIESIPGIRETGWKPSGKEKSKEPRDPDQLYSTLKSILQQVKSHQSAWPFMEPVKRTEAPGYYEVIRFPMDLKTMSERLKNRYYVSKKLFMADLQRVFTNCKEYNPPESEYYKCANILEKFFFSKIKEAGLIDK
Protein polybromo-1 (Homo sapiens), sequence (Q86U86 whole entry): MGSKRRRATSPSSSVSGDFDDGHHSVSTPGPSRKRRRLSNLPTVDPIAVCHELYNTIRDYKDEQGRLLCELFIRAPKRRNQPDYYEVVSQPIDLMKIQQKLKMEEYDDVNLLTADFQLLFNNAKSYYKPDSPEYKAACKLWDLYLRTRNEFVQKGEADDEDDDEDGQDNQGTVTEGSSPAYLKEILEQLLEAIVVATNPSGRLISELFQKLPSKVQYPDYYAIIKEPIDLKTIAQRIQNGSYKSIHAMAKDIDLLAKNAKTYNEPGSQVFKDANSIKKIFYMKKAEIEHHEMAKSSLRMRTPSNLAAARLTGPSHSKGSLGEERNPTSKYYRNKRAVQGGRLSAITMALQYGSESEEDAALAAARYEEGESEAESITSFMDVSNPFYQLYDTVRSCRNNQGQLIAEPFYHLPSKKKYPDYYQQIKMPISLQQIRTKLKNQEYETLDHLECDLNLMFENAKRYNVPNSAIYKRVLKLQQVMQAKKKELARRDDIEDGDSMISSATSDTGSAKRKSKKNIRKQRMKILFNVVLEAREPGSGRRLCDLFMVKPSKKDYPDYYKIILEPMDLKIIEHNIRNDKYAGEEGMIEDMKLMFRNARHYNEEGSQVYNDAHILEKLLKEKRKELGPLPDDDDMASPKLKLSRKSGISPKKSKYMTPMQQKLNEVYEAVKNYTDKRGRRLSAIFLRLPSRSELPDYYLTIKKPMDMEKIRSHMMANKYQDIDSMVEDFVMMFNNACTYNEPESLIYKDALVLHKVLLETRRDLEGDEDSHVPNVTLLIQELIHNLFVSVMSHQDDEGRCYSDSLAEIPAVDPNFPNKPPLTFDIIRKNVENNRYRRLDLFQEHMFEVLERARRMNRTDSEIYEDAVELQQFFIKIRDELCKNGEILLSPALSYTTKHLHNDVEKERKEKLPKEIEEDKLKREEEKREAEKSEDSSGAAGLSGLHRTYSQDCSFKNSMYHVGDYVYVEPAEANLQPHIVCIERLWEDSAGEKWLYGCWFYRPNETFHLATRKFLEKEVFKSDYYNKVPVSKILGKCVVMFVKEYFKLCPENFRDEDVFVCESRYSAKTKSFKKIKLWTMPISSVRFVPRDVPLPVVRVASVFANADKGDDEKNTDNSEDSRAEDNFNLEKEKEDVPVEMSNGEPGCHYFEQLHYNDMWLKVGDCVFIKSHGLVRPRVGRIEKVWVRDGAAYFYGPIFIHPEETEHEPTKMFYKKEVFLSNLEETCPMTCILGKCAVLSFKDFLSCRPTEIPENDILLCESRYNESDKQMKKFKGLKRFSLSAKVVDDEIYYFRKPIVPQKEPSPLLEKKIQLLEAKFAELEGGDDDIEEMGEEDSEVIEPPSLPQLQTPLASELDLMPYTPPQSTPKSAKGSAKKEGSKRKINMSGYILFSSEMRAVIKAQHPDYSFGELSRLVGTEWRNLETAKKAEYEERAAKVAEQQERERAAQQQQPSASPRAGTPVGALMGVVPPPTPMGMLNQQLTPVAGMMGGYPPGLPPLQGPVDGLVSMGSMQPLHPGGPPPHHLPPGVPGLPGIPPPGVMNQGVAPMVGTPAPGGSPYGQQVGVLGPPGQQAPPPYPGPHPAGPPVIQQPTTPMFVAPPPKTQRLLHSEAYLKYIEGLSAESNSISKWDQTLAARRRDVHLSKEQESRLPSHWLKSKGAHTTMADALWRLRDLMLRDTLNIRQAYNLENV
Bromodomain-containing protein 3 (Homo sapiens), sequence (Q15059 2-726 limits assumed): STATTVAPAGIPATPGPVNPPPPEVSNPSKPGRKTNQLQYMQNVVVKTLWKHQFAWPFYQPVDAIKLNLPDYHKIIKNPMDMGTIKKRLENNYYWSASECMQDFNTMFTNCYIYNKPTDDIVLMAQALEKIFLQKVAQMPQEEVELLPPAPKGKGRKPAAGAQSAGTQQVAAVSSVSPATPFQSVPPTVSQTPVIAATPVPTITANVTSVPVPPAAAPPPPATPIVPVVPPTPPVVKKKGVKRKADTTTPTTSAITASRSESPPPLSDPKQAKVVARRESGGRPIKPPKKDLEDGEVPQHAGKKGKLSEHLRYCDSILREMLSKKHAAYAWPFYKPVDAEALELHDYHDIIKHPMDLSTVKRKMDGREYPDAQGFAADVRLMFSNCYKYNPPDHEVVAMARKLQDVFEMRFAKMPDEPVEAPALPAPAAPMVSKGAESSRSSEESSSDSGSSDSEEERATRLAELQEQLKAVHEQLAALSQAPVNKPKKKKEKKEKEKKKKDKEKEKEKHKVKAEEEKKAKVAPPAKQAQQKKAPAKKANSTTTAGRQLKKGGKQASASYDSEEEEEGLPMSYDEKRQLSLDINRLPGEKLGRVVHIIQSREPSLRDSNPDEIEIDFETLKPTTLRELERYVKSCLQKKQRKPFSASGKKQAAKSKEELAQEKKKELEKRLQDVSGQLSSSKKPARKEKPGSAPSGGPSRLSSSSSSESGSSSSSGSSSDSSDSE
Bromodomain-containing protein 2 (Homo sapiens), sequence (P25440 whole entry, looked up): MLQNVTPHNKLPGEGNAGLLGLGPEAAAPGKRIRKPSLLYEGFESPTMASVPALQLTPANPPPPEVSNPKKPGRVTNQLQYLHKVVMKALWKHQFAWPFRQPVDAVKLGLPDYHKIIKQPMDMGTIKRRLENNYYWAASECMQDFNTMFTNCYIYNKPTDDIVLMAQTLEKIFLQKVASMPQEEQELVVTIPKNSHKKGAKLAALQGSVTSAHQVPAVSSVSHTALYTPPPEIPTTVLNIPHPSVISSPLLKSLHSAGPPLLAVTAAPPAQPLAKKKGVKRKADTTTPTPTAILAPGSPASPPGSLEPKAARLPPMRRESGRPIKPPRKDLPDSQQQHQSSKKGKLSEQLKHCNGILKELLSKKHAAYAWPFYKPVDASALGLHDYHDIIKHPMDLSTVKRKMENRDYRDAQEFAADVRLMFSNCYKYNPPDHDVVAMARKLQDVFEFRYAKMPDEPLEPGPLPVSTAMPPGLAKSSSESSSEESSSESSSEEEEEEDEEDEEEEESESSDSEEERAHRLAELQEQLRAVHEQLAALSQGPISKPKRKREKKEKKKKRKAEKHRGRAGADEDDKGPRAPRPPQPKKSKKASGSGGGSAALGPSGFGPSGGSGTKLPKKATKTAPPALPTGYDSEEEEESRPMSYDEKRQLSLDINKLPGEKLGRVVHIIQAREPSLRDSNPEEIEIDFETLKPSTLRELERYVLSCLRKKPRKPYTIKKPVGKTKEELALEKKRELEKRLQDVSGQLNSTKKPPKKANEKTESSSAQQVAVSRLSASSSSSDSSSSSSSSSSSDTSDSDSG

CCOC(=O)c1ncn2c1[C@@H]1CCCN1C(=O)c1cc(OC)ccc1-2
Activity [1]: Active
Activity [2]: inactive
Activity [3]: inactive
Activity [4]: inactive
Activity [5]: inactive
Activity [6]: Active
Activity [7]: Active
Activity [8]: inactive
Activity [9]: inactive
Activity [10]: inactive
Activity [11]: Active
Activity [12]: inactive

Cc1nnc2n1-c1ccc(Cl)cc1C(c1ccccc1)=NC2 [ALPRAZOLAM]
Activity [1]: Active
Activity [2]: inactive
Activity [3]: Active
Activity [4]: Active
Activity [5]: inactive
Activity [6]: Active
Activity [7]: Active
ΔTm [13]: 4.7 °C
Activity [8]: Active
Activity [9]: Active
Activity [10]: inactive
Activity [11]: Active
Activity [12]: Active

CCC1=NCc2nnc(C)n2-c2ccc(Cl)cc21
ΔTm [14]: < 2 °C
ΔTm [15]: < 2 °C
ΔTm [16]: < 2 °C
ΔTm [17]: < 2 °C
ΔTm [18]: < 2 °C
ΔTm [19]: < 2 °C
ΔTm [20]: < 2 °C
ΔTm [21]: < 2 °C
ΔTm [22]: < 2 °C
ΔTm [23]: < 2 °C
ΔTm [24]: < 2 °C
ΔTm [25]: < 2 °C

CCC1=NCC(=O)Nc2ccc(Cl)cc21
ΔTm [14]: < 2 °C
ΔTm [15]: < 2 °C
ΔTm [16]: < 2 °C
ΔTm [17]: < 2 °C
ΔTm [18]: < 2 °C
ΔTm [19]: < 2 °C
ΔTm [20]: < 2 °C
ΔTm [21]: < 2 °C
ΔTm [22]: < 2 °C
ΔTm [23]: < 2 °C
ΔTm [24]: < 2 °C
ΔTm [25]: < 2 °C

CN1N=C(c2ccccc2)c2cc(Cl)ccc2NC1=S
ΔTm [14]: < 2 °C
ΔTm [15]: < 2 °C
ΔTm [16]: < 2 °C
ΔTm [17]: < 2 °C
ΔTm [18]: < 2 °C
ΔTm [19]: < 2 °C
ΔTm [20]: < 2 °C
ΔTm [21]: < 2 °C
ΔTm [22]: < 2 °C
ΔTm [23]: < 2 °C
ΔTm [24]: < 2 °C
ΔTm [25]: < 2 °C

Cc1ncc2n1-c1ccc(Cl)cc1C(c1ccccc1F)=NC2
Activity [1]: Active
Activity [2]: inactive
Activity [3]: inactive
Activity [4]: Active
Activity [5]: inactive
Activity [6]: Active
Activity [7]: Active
Activity [8]: Active
Activity [9]: Active
Activity [10]: inactive
Activity [11]: Active
Activity [12]: Active

CCC1=NCc2nnc(CC)n2-c2ccc(Cl)cc21
ΔTm [14]: < 2 °C
ΔTm [15]: < 2 °C
ΔTm [16]: < 2 °C
ΔTm [17]: < 2 °C
ΔTm [18]: < 2 °C
ΔTm [19]: < 2 °C
ΔTm [20]: < 2 °C
ΔTm [21]: < 2 °C
ΔTm [22]: < 2 °C
ΔTm [23]: < 2 °C
ΔTm [24]: < 2 °C
ΔTm [25]: < 2 °C

CCC1=NCc2nnc(-c3ccccc3)n2-c2ccc(Cl)cc21
ΔTm [14]: < 2 °C
ΔTm [15]: < 2 °C
ΔTm [16]: < 2 °C
ΔTm [17]: < 2 °C
ΔTm [18]: < 2 °C
ΔTm [19]: < 2 °C
ΔTm [20]: < 2 °C
ΔTm [21]: < 2 °C
ΔTm [22]: < 2 °C
ΔTm [23]: < 2 °C
ΔTm [24]: < 2 °C
ΔTm [25]: < 2 °C

CN1N=C(c2ccccc2)c2cc(Cl)ccc2-n2c(N)nnc21
ΔTm [14]: < 2 °C
ΔTm [15]: < 2 °C
ΔTm [16]: < 2 °C
ΔTm [17]: < 2 °C
ΔTm [18]: < 2 °C
ΔTm [19]: < 2 °C
ΔTm [20]: < 2 °C
ΔTm [21]: < 2 °C
ΔTm [22]: < 2 °C
ΔTm [23]: < 2 °C
ΔTm [24]: < 2 °C
ΔTm [25]: < 2 °C

CN1N=C(c2ccccc2)c2cc(Cl)ccc2-n2c1n[nH]c2=O
ΔTm [14]: < 2 °C
ΔTm [15]: < 2 °C
ΔTm [16]: < 2 °C
ΔTm [17]: < 2 °C
ΔTm [18]: < 2 °C
ΔTm [19]: < 2 °C
ΔTm [20]: < 2 °C
ΔTm [21]: < 2 °C
ΔTm [22]: < 2 °C
ΔTm [23]: < 2 °C
ΔTm [24]: < 2 °C
ΔTm [25]: < 2 °C

CCC1=NCC(=S)Nc2ccc(Cl)cc21
ΔTm [14]: < 2 °C
ΔTm [15]: < 2 °C
ΔTm [16]: < 2 °C
ΔTm [17]: < 2 °C
ΔTm [18]: < 2 °C
ΔTm [19]: < 2 °C
ΔTm [20]: < 2 °C
ΔTm [21]: < 2 °C
ΔTm [22]: < 2 °C
ΔTm [23]: < 2 °C
ΔTm [24]: < 2 °C
ΔTm [25]: < 2 °C

CCC1=NCc2nnc(-c3ccncc3)n2-c2ccc(Cl)cc21
ΔTm [14]: < 2 °C
ΔTm [15]: < 2 °C
ΔTm [16]: < 2 °C
ΔTm [17]: < 2 °C
ΔTm [18]: < 2 °C
ΔTm [19]: < 2 °C
ΔTm [20]: < 2 °C
ΔTm [21]: < 2 °C
ΔTm [22]: < 2 °C
ΔTm [23]: < 2 °C
ΔTm [24]: < 2 °C
ΔTm [25]: < 2 °C

Cc1nnc2n1-c1ccc(Cl)cc1C(c1ccccc1)=NN2C
ΔTm [14]: < 2 °C
Activity [1]: Active
ΔTm [15]: < 2 °C
ΔTm [16]: < 2 °C
Activity [2]: inactive
Activity [3]: Active
Activity [4]: Active
Activity [5]: Active
ΔTm [17]: < 2 °C
ΔTm [18]: < 2 °C
ΔTm [19]: < 2 °C
Activity [6]: Active
ΔTm [20]: < 2 °C
ΔTm [21]: < 2 °C
Activity [7]: Active
ΔTm [22]: < 2 °C
ΔTm [23]: < 2 °C
ΔTm [13]: 4.2 °C
Activity [8]: Active
Activity [9]: Active
Activity [10]: Active
ΔTm [24]: < 2 °C
Activity [11]: Active
ΔTm [25]: < 2 °C
Activity [12]: Active

CCC1=NCc2nnc(-c3cccc(OC)c3)n2-c2ccc(Cl)cc21
ΔTm [14]: < 2 °C
ΔTm [15]: < 2 °C
ΔTm [16]: < 2 °C
ΔTm [17]: < 2 °C
ΔTm [18]: < 2 °C
ΔTm [19]: < 2 °C
ΔTm [20]: < 2 °C
ΔTm [21]: < 2 °C
ΔTm [22]: < 2 °C
ΔTm [23]: < 2 °C
ΔTm [24]: < 2 °C
ΔTm [25]: < 2 °C

Clc1ccc2c(c1)C(c1ccccc1)=NCc1nncn1-2
Activity [1]: Active
Activity [2]: inactive
Activity [3]: inactive
Activity [4]: Active
Activity [5]: inactive
Activity [6]: Active
Activity [7]: inactive
Activity [8]: Active
Activity [9]: inactive
Activity [10]: inactive
Activity [11]: Active
Activity [12]: inactive

CC(=O)NNC1=Nc2ccc(Cl)cc2C(c2ccccc2)=NN1C
ΔTm [14]: < 2 °C
ΔTm [15]: < 2 °C
ΔTm [16]: < 2 °C
ΔTm [17]: < 2 °C
ΔTm [18]: < 2 °C
ΔTm [19]: < 2 °C
ΔTm [20]: < 2 °C
ΔTm [21]: < 2 °C
ΔTm [22]: < 2 °C
ΔTm [23]: < 2 °C
ΔTm [24]: < 2 °C
ΔTm [25]: < 2 °C
